Assay [1] has as its target T1, WT ASIC1a (Homo sapiens, UniProt P78348).
T1 construct: expressed in transfected cells; host or cells: Xenopus laevis oocytes injected with cRNA
T1 sequence (P78348 1-528): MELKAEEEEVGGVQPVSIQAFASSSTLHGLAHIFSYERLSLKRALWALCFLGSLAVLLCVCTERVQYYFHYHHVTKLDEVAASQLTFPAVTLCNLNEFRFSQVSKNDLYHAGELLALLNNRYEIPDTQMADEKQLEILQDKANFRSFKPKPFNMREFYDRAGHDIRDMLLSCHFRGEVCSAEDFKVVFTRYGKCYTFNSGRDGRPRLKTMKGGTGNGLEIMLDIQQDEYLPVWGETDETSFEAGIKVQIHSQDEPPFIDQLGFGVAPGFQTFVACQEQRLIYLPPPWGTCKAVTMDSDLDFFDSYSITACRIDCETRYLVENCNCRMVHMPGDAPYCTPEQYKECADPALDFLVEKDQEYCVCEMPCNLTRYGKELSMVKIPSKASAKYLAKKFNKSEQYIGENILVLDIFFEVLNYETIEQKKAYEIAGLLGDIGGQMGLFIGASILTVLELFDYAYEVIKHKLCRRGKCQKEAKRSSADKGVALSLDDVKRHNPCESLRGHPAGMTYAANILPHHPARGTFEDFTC
The assay is described as follows: Time course of appearance of Isust (association), WT. It is filed as cell-based. Conditions: pH 7.4, 50 μM FRRFa pre-applied for different times at pH7.4, n = 4, mean ± SEM, read-out: association rate constant kon. On the procedure:
(§1) ASIC1a function was measured by two-electrode voltage-clamp after recombinant expression in Xenopus oocytes. The channels were activated by a pH5 stimulation solution from a conditioning solution of pH7.4. […] We measured the rate of FRRFa unbinding, as the disappearance of the sustained current after a 50-s incubation with 50 μM FRRFa, as 0.025 ± 0.005 s^−1 (n = 8, Fig. 2b). […] To determine the kinetics of FRRFa association on ASIC1a, we pre-applied the peptide at a concentration of 50 μM for different time periods in the conditioning solution and measured the sustained current fraction.
(§2) Figure 2 FRRFa modulation of ASIC1a currents is only partially affected by acidic pocket mutations. (a) FRRFa concentration-response curve. Top, representative current traces. Bottom, Isust/Ipeak ratio induced by pH5 as a function of the FRRFa concentration (pre-applied during 45–50 s and present in pH5 solution), n = 7–11. (b) Time course of disappearance of the FRRFa-induced Isust. FRRFa at 50 μM was applied for 45 s, and current was measured once every minute during washout with FRRFa-free solution. Exponential fit shown as solid line (n = 4, error bars are smaller than the symbols). (c) Time course of appearance of Isust. Oocytes were exposed for various durations to 50 μM FRRFa in the pH7.4 conditioning solution, before activation of ASIC currents with pH5, including 50 μM FRRFa. […]

The target in assay [2] is T2, WT ASIC1a (Homo sapiens, UniProt P78348).
T2 construct: expressed in transfected cells; host or cells: Xenopus laevis oocytes injected with cRNA
T2 sequence (P78348 1-528 G212D): T1 sequence (P78348 1-528) with G212D
The assay is described as follows: Disappearance of FRRFa-induced Isust on washout, WT. It is filed as cell-based. To be noted: WT in direct comparison with N416C; washout after 50 μM FRRFa 45 s; n = 4. On the procedure: as §1, §2

Where a chain is given by its changes, count along the chain named. Peptide text beside a SMILES is read from it.

As to `N=C(N)NCCC[C@H](NC(=O)[C@H](CCCNC(=N)N)NC(=O)[C@@H](N)Cc1ccccc1)C(=O)N[C@@H](Cc1ccccc1)C(N)=O` [FRRFa, Phe-Arg-Arg-Phe-amide] (H-FRRF-NH2), the kon on WT ASIC1a [1] came to 162 ± 84 M⁻¹ s⁻¹. Besides, on WT ASIC1a [2], the off-rate constant (koff) came to 0.029 ± 0.011 s⁻¹.

The values above are taken from paper PMC6385203, “Mutations in the palm domain disrupt modulation of acid-sensing ion channel 1a currents by neuropeptides” (Scientific Reports, 2019).
